Data taken from patent publication US9408866B2, “Method for detoxification or measurement of at least one compound or at least one fluid in a host body” (NIVA, priority 2012, dated 2016).
Marks after values point to notes of the source that are not given here.

How the values were obtained:
[1] = Contaminant masses in explanted silicone breast prostheses (acetone extraction, GC-MS); type: in vivo, human
Description: Silicone prostheses were obtained following breast implant surgery during a period spanning from July 2010 to January 2012. Reasons for explanation ranged from severe capsular contracture to a wish for a change in prosthesis size.
Prostheses were collected during surgical explanation from patients and wrapped individually in clean aluminium foil and stored in labelled plastic bags.
As soon as possible after, samples were stored in a freezer. Samples were then transported on ice to the laboratory and stored at −20° C. until analysis. For this proof-of-concept study, 9 prostheses were extracted and analysed. […] Two prostheses were duplicates and their analysis aimed to investigate the reproducibility of the analytical steps as well as of the representativeness of the sampling (samples 2, 6, and 9 in Table 1). All prostheses were made of medical silicone gel enclosed in an outer silicone shell filled with gel with various degree of cohesiveness. Differences between prostheses from various producers include volume, type of silicone material, surface texture and thickness of the outer shell and cohesive degree of the filling gel. Prostheses were tinted and tinting from light yellow to orange appeared (from visual inspection only) dependent on exposure time. […]
Silicone prosthesis extraction were performed in batches of 10-12 samples and included a blank prosthesis (volume of 200-450 cm^3), a spiked prosthesis to assess extraction efficiency and a solvent blank to evaluate potential contamination during extraction and extract clean-up. Extraction of the whole prostheses was undertaken in pre-baked 2 L beakers kept in the dark to prevent photo degradation. Samples were brought to room temperature and the surface was rinsed with ultrapure water and dried with a clean tissue. Connective tissue capsule attached to the surface of prostheses were removed. Samples were extracted by soaking in 1 L of acetone for 24 hours. Acetone was chosen for its low capacity to swell the silicone matrix and because of the ease with which it can volatilise. Recovery standards for organochlorines, PCBs and PBDEs (including for BDE-209) were added to the acetone. It was expected that 24 hours is sufficient for chemicals (present in either phases) to partition between the solvent phase and the silicone prosthesis. The acetone was replaced by another 1 L of acetone and samples were extracted for a further 24 hours. The two volumes of acetone were combined and reduced under a gentle stream of nitrogen. Prostheses were weighed before and after solvent extraction to determine the total amount of silicone oils and other substances removed from the matrix during solvent extraction. A second set of internal standards was used to evaluate possible losses during the sample clean-up step. The solvent was changed to isohexane and sample clean-up consisted of repeated sulphuric acid treatment until no colouring of the extract could be observed. Extract were then passed through a silica-filled solid phase extraction column and eluted with dichloromethane or isohexane. Extracts were reduced to an adequate volume before analysis.
Analytes were separated on a 30 m-long DB-5MS column (0.25 mm i.d. and 0.25 μm film thickness, Agilent JW Scientific, Santa Clara, USA) following 1 μL pulsed splitless injection (pulse pressure 20 psi for 1.2 min, injector temperature of 300° C.). The helium gas flow was set to 1.2 mL min^−1 and the GC oven temperature programme consisted of a step at 60° C. (held for 2 min) before an increase to 250° C. (at the rate 7° C. min^−1) and a final increase to 310° C. (at the rate of 15° C. min^−1) with this temperature held constant for a further 5 min. Ion source, quadrupole and transfer line temperatures were set to 230, 150 and 280° C., respectively. Quantification was performed using the relative response of surrogate internal standards (CB-30, CB-53 and CB-204) and 7-point calibration curves. […]

[2] = POP concentration in lipids estimated from concentrations measured in prostheses; type: in vivo, human; details: estimated from silicone prosthesis concentrations, silicone density of 1.0 and Klip-sil values
Method: The representativeness and suitability of POP concentrations measured in explanted silicone prostheses can be evaluated through comparison with literature data on POP levels measured in breast milk or blood serum from Norwegian women. Using seal oil lipid-to-silicone partition coefficients, Klip-sil for PCBs and DDTs, estimates of POP concentrations in lipids of participants of the present invention were calculated. This approach assumes that the influence of the type of silicone and of lipids on lipid-silicone partition coefficients is minor.

[3] = milk from Norwegian women (n = 70), Thomsen et al. (2011); cited from earlier work
[4] = mean, Norwegian women (n = 20) age 25-59, Thomsen et al. (2007); cited from earlier work
[5] = seal lipids, taken from Jahnke et al. (2008); cited from earlier work
[6] = Sample 2, duplicate explanted prostheses analysed in the same batch

SMILES	Prosthesis contaminant mass, Mean [1, 6]	Estimated Clipid [2]	Measured Cmilk (median with range in brackets) [3]	Measured Cserum [4]	Klip-sil (lipid-silicone partition coefficient) [5]	Prosthesis contaminant mass, Mean ([1]; human, in vivo)
Brc1c(Br)c(Br)c(Oc2c(Br)c(Br)c(Br)c(Br)c2Br)c(Br)c1Br [BDE-209]	6.5 ng sample^−1					
Clc1cc(Cl)c(-c2cc(Cl)c(Cl)cc2Cl)cc1Cl [CB-153]	252 ng sample^−1	62 ng/g	38 (20-68) ng g^−1 lipid	43 ng g^−1 lipid	38.1 g/g	
ClC(Cl)=C(Cl)c1c(Cl)c(Cl)c(Cl)c(Cl)c1Cl [OCS, octachlorostyrene]						3.5 ng sample^−1
Brc1cc(Br)c(Oc2cc(Br)c(Br)cc2Br)c(Br)c1 [BDE-154]	0.5 ng sample^−1					
Clc1ccc(Cl)c(-c2cc(Cl)c(Cl)cc2Cl)c1 [CB-101]	7.6 ng sample^−1	0.5 ng/g	6.4 (1.8-36)^f ng g^−1 lipid	5.8 ng g^−1 lipid	26.3 g/g	
Brc1ccc(Oc2ccc(Br)cc2Br)c(Br)c1 [BDE-47]	1.6 ng sample^−1					
Clc1cc(Cl)c(Cl)c(Cl)c1Cl [PeCB, pentachlorobenzene]	5.6 ng sample^−1					
Brc1ccc(Oc2ccc(Br)cc2Br)cc1 [BDE-28]	0.5 ng sample^−1					
Clc1ccc(C(c2ccc(Cl)cc2)C(Cl)(Cl)Cl)cc1 [p,p′-DDT]	38 ng sample^−1	5.7 ng/g			50.7 g/g	
Clc1ccc(Cl)c(-c2cc(Cl)ccc2Cl)c1 [CB-52]					19.2 g/g	
Clc1ccc(-c2ccc(Cl)c(Cl)c2Cl)cc1Cl [CB-105]	11 ng sample^−1	1.5 ng/g	1.8 (0.89-3.2)^f ng g^−1 lipid		35.4 g/g	
Clc1c(Cl)c(Cl)c(Cl)c(Cl)c1Cl [HCB, hexachlorobenzene]	181 ng sample^−1	10.9 ng/g				
Brc1ccc(Oc2ccc(Br)c(Br)c2)cc1Br [BDE-77]	0.8 ng sample^−1					
Brc1cc(Br)c(Oc2cc(Br)c(Br)cc2Br)cc1Br [BDE-153]	3.7 ng sample^−1					
Clc1ccc(C(c2ccccc2Cl)C(Cl)(Cl)Cl)cc1 (centres unmarked) [o,p′-DDT]		0.8 ng/g			21.3 g/g	
Clc1ccc(-c2cc(Cl)c(Cl)c(Cl)c2Cl)cc1Cl [CB-156]	15 ng sample^−1	4.5 ng/g	3.2 (1.5-5.9)^f ng g^−1 lipid		50.8 g/g	
Clc1cc(Cl)c(-c2cc(Cl)c(Cl)c(Cl)c2Cl)cc1Cl [CB-180]	9.3 ng sample^−1	4.2 ng/g	17 (8.5-32)^f ng g^−1 lipid	34 ng g^−1 lipid	49.4 g/g	
ClC(Cl)=C(c1ccc(Cl)cc1)c1ccc(Cl)cc1 [p,p′-DDE]	543 ng sample^−1					
Clc1ccc(-c2cc(Cl)c(Cl)cc2Cl)cc1Cl [CB-118]	52 ng sample^−1	7.5 ng/g	9.3 (4.0-15)^f ng g^−1 lipid	8.0 ng g^−1 lipid	35.2 g/g	
Clc1cc(Cl)c(-c2ccc(Cl)c(Cl)c2Cl)cc1Cl [CB-138]	123 ng sample^−1	27 ng/g	16 (8-30)^f ng g^−1 lipid	20 ng g^−1 lipid	34.0 g/g	
